{
  "source": "patent US20250082605A1",
  "about": "(priority 2016, published 2025)",
  "key": {"rats with induced CHF [1]": {"system": "rats with induced CHF", "test": "Cardiac and renal sympathetic nerve activity (CSNA, RSNA) in CHF rats", "format": "in vivo, rat", "conditions": "for cardiac sympathetic nerve activity (CSNA): CHF", "description": "In each case, administration of vehicle or RTX and vehicle was epidural. […] Both significance measures were at the P<0.05 level.\nThe following Examples 1 through 9 discuss data from rats with induced CHF. The Examples show many improved indicators associated with RTX treatment in CHF subjects. The rat models provide for comparison of epidural administration of RTX against epicardial administration of RTX and against various controls. For the epicardial data, RTX was administered directly to the epicardium by swab during open surgery contemporaneously with induced myocardial infarction (coronary artery ligation).\n(§1) For epidural application of RTX, a small midline incision was made in the region of the T13-L1 thoracic vertebrae. Following dissection of the superficial muscles, two small holes (approximately 2 mm by 2 mm) were made in the left and right sides of the T13 vertebra. A polyethylene catheter (PE-10) was inserted into the […] via the left hole and gently advanced about 5.5-6 cm to the left T1 level at which the first injection (6 μg/mL, 10 μL) was made at a very slow speed to minimize the diffusion of RTX. Then the catheter was pulled back about 0.5 cm to left T2, T3, and T4, respectively, to perform serial injections (10 μL each) in each segment. Then the catheter was withdrawn and the same injection was repeated on the right side. A silicone gel was used to seal the hole in the T13 vertebra. The skin overlying the muscle was closed with a 3-0 polypropylene suture. Simple interrupted sutures were used to close the skin.\nIn each case, administration of vehicle or RTX plus vehicle was epidural. […] Both significance measures were at the P<0.05 level."}, "TRPV1": {"target": "TRPV1 (Rattus norvegicus, UniProt O35433)", "sequence (O35433 whole entry)": "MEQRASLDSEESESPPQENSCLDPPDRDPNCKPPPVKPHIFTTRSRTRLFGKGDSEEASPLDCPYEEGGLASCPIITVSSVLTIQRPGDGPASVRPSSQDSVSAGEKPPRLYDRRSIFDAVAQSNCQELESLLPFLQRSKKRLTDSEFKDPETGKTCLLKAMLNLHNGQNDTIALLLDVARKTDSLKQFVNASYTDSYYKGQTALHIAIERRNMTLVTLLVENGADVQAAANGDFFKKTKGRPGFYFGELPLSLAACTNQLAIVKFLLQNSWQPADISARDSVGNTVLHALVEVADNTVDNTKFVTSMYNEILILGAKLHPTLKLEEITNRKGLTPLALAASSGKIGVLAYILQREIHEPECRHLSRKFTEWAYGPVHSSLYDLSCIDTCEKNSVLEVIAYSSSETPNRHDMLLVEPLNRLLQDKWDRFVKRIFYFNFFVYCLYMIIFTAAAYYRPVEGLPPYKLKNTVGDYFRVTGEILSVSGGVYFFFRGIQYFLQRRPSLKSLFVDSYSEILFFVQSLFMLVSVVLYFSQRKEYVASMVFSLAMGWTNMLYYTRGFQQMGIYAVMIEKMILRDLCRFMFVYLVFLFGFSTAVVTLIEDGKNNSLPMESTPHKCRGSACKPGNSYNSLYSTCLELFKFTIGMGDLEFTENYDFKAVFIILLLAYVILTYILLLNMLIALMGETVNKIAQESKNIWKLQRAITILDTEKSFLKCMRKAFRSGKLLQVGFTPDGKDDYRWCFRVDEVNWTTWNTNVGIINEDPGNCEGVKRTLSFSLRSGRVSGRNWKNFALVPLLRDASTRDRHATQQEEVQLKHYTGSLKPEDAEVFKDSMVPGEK", "test": "TRPV1 receptor intensity by vertebral level after epidural RTX injection at T1-T4", "format": "in vivo", "set-up": "from tissue; host or cells: rat tissue at vertebral levels C6-L4 after in vivo epidural RTX", "conditions": "RTX injection at T1-T4 vertebral levels, FIG. 2", "description": "The nerves associated with the sympatho-excitation corresponding to increased cardiac sympathetic nerve activity are predominately found within the first four thoracic vertebral levels (Evans et al. (1953) N. Engl. J. Med. 249:791-796). Thus, administration to one or more of the first four thoracic vertebral levels may be beneficial because the nerves associated with cardiac sympathetic afferent nerve activity are predominately found within the first four thoracic vertebral levels. By treating these thoracic vertebral levels, denervation of these sympathetic afferent nerves will be substantially achieved with minimal or only partial denervation or ablation of nerves at other vertebral levels. […] Additionally, the small images inset on the figure show greater intensity of activity visible at the C6, C7, T6, T7, and L4 vertebral levels, as compared to the C8 through T5 vertebral levels.\nFor epidural application of RTX, a small midline incision was made in the region of the T13-L1 thoracic vertebrae. Following dissection of the superficial muscles, two small holes (approximately 2 mm by 2 mm) were made in the left and right sides of the T13 vertebra. […]"}, "rats with induced CHF [2]": {"system": "rats with induced CHF", "test": "Mean arterial pressure over 24 hours in CHF rats", "format": "in vivo, rat", "conditions": "epidural RTX, 10-12 weeks after myocardial infarction", "description": "The study was conducted 10-12 weeks after the myocardial infarction.\nas §1\nFor each population, n=6-8. The study was conducted for a 10-12 week period after the myocardial infarction. […] Treatment with epidural RTX corresponds to a lower MAP for the CHF rat population."}, "[3]": {"system": "spontaneously hypertensive rat (SHR)", "test": "Arterial pressure in spontaneously hypertensive rat (SHR) model with established hypertension after epidural RTX", "format": "in vivo", "description": "(§2) Open circles indicate the control population, while filled circles indicate the RTX-treated population. Epidural administration of RTX was by injection on Day 0, as indicated by the arrow on the graph.\n(§3) The hypertensive model is a genetic spontaneously hypertensive rat (SHR). The early hypertension rats were treated at 8 weeks at age, reflecting a population in which blood pressure was only minimally elevated at the beginning of the study. Examples 10 and 11 illustrate treatment of subjects with hypertension and pre-hypertension (i.e., mild hypertension or early hypertension) and without induced CHF. For these subjects, epidural administration of RTX may be associated with an absolute reduction in blood pressure. Additionally, subjects treated with RTX may show less increase in blood pressure over time, as compared to a control population. Or, treatment may be associated with both an absolute reduction in pressure and lessened increase over time.\nFIG. 14A-14C show further experimental results in a study using an (SHR) model. […] The established hypertensive rats were treated at 16 weeks at age, reflecting a population in which blood pressure was elevated at the beginning of the RTX administration. Open circles indicate the control population, while filled circles indicate the RTX-treated population. Epidural administration of RTX was by injection on Day 0, as indicated by the arrow on each graph. […] These subjects were not treated to induce myocardial infarction. The data allowed for comparison of SHR rats provided injection of the vehicle only (n=7) to those treated by injection of both vehicle and RTX (n=7)."}, "early hypertensive rats": {"system": "early hypertensive rats", "test": "Arterial pressure in early hypertensive rat model after epidural RTX", "format": "in vivo", "description": "as §2, §3\nFIG. 13A-13C show experimental results in a study using an early-hypertensive rat model. […] Open circles indicate the control population, while filled circles indicate the RTX-treated population. Epidural administration of RTX was by injection on Day 0, as indicated by the arrow on each graph."}, "[4]": {"conditions": "established SHR, maintained throughout the study"}, "[5]": {"conditions": "vehicle-only continued to increase"}},
  "data": [
    {"smiles": "C=C(C)[C@]12C[C@@H](C)[C@@]34O[C@](Cc5ccccc5)(O[C@@H]1[C@@H]3C=C(COC(=O)Cc1ccc(O)c(OC)c1)C[C@]1(O)C(=O)C(C)=C[C@@H]41)O2", "note": "[RTX, resiniferatoxin]", "values": [
      {"measurement": "CHF-induced increase in basal cardiac sympathetic tone (CSNA and RSNA)", "setting": "rats with induced CHF [1]; CHF + epidural RTX", "result": "not exhibited"},
      {"measurement": "basal cardiac sympathetic tone, difference", "setting": "rats with induced CHF [1]; CHF + epidural RTX vs non-CHF population", "result": "not statistically significant"},
      {"measurement": "cardiac sympathetic nerve activity (CSNA)", "setting": "rats with induced CHF [1]; epicardial RTX vs untreated CHF", "result": "substantially reduced"},
      {"measurement": "cardiac sympathetic nerve activity (CSNA)", "setting": "rats with induced CHF [1]; epidural RTX vs epicardial RTX", "result": "substantially lower"},
      {"measurement": "cardiac sympathetic nerve activity (CSNA)", "setting": "rats with induced CHF [1]; epidural RTX vs untreated CHF", "result": "substantially reduced"},
      {"measurement": "reduced vanilloid (TRPV1) receptor intensity, localisation", "setting": "TRPV1", "result": "generally localized to the four treated vertebral levels and the one or two vertebral levels proximate the treated vertebral levels"},
      {"measurement": "mean arterial pressure (MAP) over 24 hours", "setting": "rats with induced CHF [2]", "result": "lower MAP"},
      {"measurement": "day from which MAP reduction was significant vs vehicle-only", "setting": "[3]; established SHR", "result": "~8", "unit": "days"},
      {"measurement": "day from which diastolic arterial pressure differed significantly from vehicle-only", "setting": "[3]; established SHR", "result": "~8", "unit": "days"},
      {"measurement": "day from which systolic arterial pressure differed significantly from vehicle-only", "setting": "[3]; established SHR", "result": "~7", "unit": "days"},
      {"measurement": "mean arterial pressure (MAP) vs pre-injection baseline", "setting": "[3]; established SHR, epidural RTX, observed throughout 55-day period", "result": "some reduction"},
      {"measurement": "diastolic arterial pressure vs pre-injection baseline", "setting": "[3]; [4]", "result": "decrease"},
      {"measurement": "systolic arterial pressure vs pre-injection baseline", "setting": "[3]; [4]", "result": "decrease"},
      {"measurement": "MAP following treatment", "setting": "[3]; established hypertensive rats", "result": "125-130 mmHg"},
      {"measurement": "MAP following treatment", "setting": "early hypertensive rats", "result": "125-130 mmHg"},
      {"measurement": "day from which MAP was significantly lower than vehicle-only", "setting": "early hypertensive rats", "result": 20, "unit": "days"},
      {"measurement": "day from which diastolic arterial pressure was significantly lower than control", "setting": "early hypertensive rats", "result": "~22", "unit": "days"},
      {"measurement": "day from which systolic arterial pressure was significantly lower than control", "setting": "early hypertensive rats", "result": "~23", "unit": "days"},
      {"measurement": "mean arterial pressure (MAP) after RTX injection", "setting": "early hypertensive rats; epidural RTX Day 0", "result": "decreased slightly"},
      {"measurement": "systolic arterial pressure within a few days after RTX injection", "setting": "early hypertensive rats; then returned and maintained", "result": "decreased slightly"},
      {"measurement": "diastolic arterial pressure over the study period", "setting": "early hypertensive rats; [5]", "result": "remained approximately steady"},
      {"measurement": "mean arterial pressure (MAP) over the period of the study", "setting": "early hypertensive rats; [5]", "result": "approximately steady"}
    ]}
  ]
}
